Assay results reported in patent US12522583B2, “Benzimidazole derivatives and aza-benzimidazole derivatives as Janus kinase 2 inhibitors and uses thereof” (Dana-Farber Cancer Institute, Inc., priority 2018, dated 2026).

Assays:
Assay in all cases: KINOMEscan
Format in all cases: binding
Settings in all cases: read-out: percent control
MYLK = MYLK (Homo sapiens (Human), UniProt Q15746)
Text: (§1) Example 2. In Vitro Kinase Selectivity Profiling of the Compounds of the Present Disclosure

KIT = KIT (Homo sapiens (Human), UniProt P10721)
Text: as §1

HIPK2 = HIPK2 (Homo sapiens (Human), UniProt Q9H2X6)
Text: as §1

TEC = TEC (Homo sapiens (Human), UniProt P42680)
Text: as §1

PIK3CA = PIK3CA (Homo sapiens (Human), UniProt P42336)
Text: as §1

SNARK = SNARK (Homo sapiens (Human), UniProt Q9H093)
Text: as §1

RIPK4 = RIPK4 (Homo sapiens (Human), UniProt P57078)
Text: as §1

TAOK3 = TAOK3 (Homo sapiens (Human), UniProt Q9H2K8)
Text: as §1

WEE2 = WEE2 (Homo sapiens (Human), UniProt P0C1S8)
Text: as §1

BLK = BLK (Homo sapiens (Human), UniProt P51451)
Text: as §1

PIK3CA(H1047L) = PIK3CA(H1047L) (Homo sapiens (Human), UniProt P42336, H1047L)
Text: as §1

MEK6 = MEK6 (Homo sapiens (Human), UniProt P52564)
Text: as §1

[1] = target: ABL1(E255K)-phosphorylated (Homo sapiens (Human), UniProt P00519, E255K)
Text: as §1

ADCK3 = ADCK3 (Homo sapiens (Human), UniProt Q8NI60)
Text: as §1

PIK3CA(I800L) = PIK3CA(I800L) (Homo sapiens (Human), UniProt P42336, I800L)
Text: as §1

GRK7 = GRK7 (Homo sapiens (Human), UniProt Q8WTQ7)
Text: as §1

CDK3 = CDK3 (Homo sapiens (Human), UniProt Q00526)
Text: as §1

CSNK1G3 = CSNK1G3 (Homo sapiens (Human), UniProt Q9Y6M4)
Text: as §1

AXL = AXL (Homo sapiens (Human), UniProt P30530)
Text: as §1

WNK2 = WNK2 (Homo sapiens (Human), UniProt Q9Y3S1)
Text: as §1

GCN2(Kin.Dom.2, S808G) = GCN2(Kin.Dom.2, S808G) (Homo sapiens, UniProt Q9P2K8, S808G)
Text: as §1

p38-gamma = p38-gamma (Homo sapiens (Human), UniProt P53778)
Text: as §1

RIOK3 = RIOK3 (Homo sapiens (Human), UniProt O14730)
Text: as §1

[2] = target: ABL1(Q252H)-nonphosphorylated (Homo sapiens (Human), UniProt P00519, Q252H)
Text: as §1

[3] = target: RSK3(Kin.Dom.1-N-terminal) (Homo sapiens (Human), UniProt Q15349)
Text: as §1

CDK4 = CDK4 (Homo sapiens (Human), UniProt P11802)
Text: as §1

ABL1-nonphosphorylated = ABL1-nonphosphorylated (Homo sapiens (Human), UniProt P00519)
Text: as §1

CDK4-cyclinD3 = CDK4-cyclinD3 (Homo sapiens (Human), UniProt P11802)
Text: as §1

LATS2 = LATS2 (Homo sapiens (Human), UniProt Q9NRM7)
Text: as §1

VPS34 = VPS34 (Homo sapiens (Human), UniProt Q8NEB9)
Text: as §1

CLK1 = CLK1 (Homo sapiens (Human), UniProt P49759)
Text: as §1

ABL1-phosphorylated = ABL1-phosphorylated (Homo sapiens (Human), UniProt P00519)
Text: as §1

MAPKAPK5 = MAPKAPK5 (Homo sapiens (Human), UniProt Q8IW41)
Text: as §1

ACVR2A = ACVR2A (Homo sapiens (Human), UniProt P27037)
Text: as §1

p38-beta = p38-beta (Homo sapiens (Human), UniProt Q15759)
Text: as §1

ERK1 = ERK1 (Homo sapiens (Human), UniProt P27361)
Text: as §1

BMPR1A = BMPR1A (Homo sapiens (Human), UniProt P36894)
Text: as §1

FLT4 = FLT4 (Homo sapiens (Human), UniProt P35916)
Text: as §1

SNRK = SNRK (Homo sapiens (Human), UniProt Q9NRH2)
Text: as §1

IGF1R = IGF1R (Homo sapiens (Human), UniProt P08069)
Text: as §1

Chain of CLK1 (P49759 whole entry): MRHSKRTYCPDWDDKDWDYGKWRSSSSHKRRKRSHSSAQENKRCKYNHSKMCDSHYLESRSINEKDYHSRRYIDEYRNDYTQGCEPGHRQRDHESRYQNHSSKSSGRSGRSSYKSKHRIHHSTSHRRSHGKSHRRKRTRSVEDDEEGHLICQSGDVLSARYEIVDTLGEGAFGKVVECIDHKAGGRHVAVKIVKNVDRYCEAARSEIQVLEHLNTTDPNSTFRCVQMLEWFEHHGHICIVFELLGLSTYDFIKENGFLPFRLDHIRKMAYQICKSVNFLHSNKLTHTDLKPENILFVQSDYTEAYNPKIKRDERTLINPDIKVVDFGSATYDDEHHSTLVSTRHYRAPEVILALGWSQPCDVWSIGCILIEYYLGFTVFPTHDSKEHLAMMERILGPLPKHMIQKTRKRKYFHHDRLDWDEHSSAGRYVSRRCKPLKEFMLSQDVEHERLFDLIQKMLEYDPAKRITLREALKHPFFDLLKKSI
Chain of WNK2 (Q9Y3S1 whole entry): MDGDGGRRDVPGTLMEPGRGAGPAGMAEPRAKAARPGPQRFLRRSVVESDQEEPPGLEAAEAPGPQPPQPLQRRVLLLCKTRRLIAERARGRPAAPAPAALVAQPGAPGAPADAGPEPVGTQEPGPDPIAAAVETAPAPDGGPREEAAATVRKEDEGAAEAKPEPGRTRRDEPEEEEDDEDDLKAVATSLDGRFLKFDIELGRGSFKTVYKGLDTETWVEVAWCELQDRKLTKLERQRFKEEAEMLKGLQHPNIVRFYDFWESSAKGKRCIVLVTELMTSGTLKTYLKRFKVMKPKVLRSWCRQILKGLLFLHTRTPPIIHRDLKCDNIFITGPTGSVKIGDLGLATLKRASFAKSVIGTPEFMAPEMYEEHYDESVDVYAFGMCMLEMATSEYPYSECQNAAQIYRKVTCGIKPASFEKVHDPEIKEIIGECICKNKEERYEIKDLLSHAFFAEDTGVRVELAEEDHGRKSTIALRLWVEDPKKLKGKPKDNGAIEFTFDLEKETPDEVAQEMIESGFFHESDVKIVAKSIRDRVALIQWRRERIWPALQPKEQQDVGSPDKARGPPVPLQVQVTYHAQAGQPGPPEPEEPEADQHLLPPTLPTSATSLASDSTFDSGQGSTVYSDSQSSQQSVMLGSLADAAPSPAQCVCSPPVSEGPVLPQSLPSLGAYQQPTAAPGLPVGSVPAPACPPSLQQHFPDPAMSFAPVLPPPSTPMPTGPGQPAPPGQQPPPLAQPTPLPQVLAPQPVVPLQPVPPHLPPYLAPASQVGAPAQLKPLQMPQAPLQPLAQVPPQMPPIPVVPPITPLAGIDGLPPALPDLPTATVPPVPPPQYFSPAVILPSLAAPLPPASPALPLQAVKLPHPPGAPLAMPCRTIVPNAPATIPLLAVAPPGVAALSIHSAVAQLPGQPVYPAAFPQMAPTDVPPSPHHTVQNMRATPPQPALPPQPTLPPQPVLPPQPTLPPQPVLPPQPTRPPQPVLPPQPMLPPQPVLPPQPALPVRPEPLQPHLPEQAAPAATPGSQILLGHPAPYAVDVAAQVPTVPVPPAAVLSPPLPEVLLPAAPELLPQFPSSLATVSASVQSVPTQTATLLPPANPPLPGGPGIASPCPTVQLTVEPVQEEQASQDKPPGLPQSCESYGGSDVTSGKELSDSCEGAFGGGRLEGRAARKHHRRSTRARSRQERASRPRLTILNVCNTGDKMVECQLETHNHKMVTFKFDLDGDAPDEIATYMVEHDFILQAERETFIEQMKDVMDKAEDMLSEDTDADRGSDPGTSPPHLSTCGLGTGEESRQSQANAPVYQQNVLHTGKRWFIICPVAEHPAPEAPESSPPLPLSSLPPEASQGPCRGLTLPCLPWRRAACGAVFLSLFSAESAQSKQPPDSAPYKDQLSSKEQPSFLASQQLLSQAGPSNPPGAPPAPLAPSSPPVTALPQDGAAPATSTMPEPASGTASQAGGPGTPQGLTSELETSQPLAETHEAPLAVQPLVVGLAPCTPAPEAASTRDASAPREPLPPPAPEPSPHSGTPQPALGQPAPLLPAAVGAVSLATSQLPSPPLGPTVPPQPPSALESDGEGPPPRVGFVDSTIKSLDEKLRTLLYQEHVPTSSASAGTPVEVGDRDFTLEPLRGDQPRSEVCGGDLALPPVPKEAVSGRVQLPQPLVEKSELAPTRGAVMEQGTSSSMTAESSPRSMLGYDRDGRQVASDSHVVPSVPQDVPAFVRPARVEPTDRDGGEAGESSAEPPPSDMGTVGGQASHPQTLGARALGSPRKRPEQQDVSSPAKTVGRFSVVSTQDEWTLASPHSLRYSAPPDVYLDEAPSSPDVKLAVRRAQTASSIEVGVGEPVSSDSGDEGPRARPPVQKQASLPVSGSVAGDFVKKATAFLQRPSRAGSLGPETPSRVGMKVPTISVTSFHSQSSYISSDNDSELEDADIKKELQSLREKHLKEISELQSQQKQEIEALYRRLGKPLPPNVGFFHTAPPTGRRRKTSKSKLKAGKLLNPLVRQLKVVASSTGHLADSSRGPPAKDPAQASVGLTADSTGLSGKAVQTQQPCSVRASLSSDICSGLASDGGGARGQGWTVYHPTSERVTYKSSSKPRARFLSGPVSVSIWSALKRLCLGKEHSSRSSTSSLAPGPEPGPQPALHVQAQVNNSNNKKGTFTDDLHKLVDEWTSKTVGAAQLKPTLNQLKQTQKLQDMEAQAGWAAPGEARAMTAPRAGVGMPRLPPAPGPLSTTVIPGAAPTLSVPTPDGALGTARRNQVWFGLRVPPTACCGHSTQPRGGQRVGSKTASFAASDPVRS
Chain of CDK3 (Q00526 whole entry): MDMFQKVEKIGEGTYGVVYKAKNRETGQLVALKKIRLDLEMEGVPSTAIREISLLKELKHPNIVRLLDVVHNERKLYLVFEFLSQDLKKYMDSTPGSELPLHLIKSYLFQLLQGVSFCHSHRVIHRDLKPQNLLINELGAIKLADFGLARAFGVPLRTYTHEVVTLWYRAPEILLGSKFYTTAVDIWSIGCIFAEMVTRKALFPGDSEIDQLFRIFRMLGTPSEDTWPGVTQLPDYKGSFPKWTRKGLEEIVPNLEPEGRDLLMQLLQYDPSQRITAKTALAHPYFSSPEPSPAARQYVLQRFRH
Chain of HIPK2 (Q9H2X6 whole entry): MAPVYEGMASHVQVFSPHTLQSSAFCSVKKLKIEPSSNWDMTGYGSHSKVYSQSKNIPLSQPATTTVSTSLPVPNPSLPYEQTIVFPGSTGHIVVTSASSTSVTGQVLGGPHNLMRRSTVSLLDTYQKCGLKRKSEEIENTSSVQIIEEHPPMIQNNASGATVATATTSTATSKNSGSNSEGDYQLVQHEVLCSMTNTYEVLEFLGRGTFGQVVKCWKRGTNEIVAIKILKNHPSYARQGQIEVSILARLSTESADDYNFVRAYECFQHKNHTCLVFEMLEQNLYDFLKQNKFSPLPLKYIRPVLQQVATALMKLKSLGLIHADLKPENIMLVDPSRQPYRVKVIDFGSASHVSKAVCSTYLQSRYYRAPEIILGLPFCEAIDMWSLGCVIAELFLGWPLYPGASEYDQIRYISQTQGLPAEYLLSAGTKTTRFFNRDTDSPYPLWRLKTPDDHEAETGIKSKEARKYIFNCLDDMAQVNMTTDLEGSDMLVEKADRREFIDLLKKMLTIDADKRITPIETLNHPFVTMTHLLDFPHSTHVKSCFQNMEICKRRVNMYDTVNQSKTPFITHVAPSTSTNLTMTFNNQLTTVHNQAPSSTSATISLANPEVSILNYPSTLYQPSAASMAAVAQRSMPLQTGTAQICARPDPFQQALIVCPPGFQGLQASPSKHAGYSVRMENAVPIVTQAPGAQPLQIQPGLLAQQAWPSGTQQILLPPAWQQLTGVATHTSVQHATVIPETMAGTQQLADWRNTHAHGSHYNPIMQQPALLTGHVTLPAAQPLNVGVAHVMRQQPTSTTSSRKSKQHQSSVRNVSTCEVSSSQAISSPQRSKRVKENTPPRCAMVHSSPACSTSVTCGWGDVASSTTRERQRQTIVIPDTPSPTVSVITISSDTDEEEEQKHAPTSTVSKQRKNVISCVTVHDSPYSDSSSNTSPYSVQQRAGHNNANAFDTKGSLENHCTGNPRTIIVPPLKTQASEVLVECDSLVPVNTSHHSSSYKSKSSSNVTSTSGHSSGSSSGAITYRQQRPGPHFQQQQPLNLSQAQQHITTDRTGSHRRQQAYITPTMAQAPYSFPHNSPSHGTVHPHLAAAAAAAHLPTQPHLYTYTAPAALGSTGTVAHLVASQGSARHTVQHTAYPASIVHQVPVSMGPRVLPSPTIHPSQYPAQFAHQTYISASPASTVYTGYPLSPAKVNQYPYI
Chain of BMPR1A (P36894 24-532): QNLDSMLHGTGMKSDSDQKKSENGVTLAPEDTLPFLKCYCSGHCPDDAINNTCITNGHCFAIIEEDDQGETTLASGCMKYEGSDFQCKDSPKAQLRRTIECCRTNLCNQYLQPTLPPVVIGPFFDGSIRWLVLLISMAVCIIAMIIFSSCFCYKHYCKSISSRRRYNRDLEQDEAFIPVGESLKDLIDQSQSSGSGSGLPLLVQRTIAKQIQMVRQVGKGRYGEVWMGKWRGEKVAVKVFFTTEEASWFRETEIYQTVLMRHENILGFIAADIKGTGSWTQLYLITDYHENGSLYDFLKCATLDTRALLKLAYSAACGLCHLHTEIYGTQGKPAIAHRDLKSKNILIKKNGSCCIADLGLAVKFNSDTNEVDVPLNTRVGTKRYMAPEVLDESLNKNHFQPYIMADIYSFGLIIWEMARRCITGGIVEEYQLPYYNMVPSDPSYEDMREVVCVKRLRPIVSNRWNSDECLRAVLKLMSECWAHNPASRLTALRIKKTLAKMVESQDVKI
Chain of CDK4 (P11802 whole entry): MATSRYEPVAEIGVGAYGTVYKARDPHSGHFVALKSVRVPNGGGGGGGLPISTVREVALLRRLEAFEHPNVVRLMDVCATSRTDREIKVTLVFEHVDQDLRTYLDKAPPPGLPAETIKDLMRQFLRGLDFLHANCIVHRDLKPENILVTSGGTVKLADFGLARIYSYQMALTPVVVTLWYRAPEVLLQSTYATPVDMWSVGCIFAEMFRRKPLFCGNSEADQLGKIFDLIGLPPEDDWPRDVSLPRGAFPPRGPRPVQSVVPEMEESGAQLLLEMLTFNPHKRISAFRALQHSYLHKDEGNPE

Work on `CCN1CCN(Cc2ccc(Nc3nc4ccc(Oc5ccnc(NC(C)=O)c5)cc4n3C)cc2C(F)(F)F)CC1` [Compound I-2] yielded a remaining binding at 1 µM (MYLK) of 59%, a remaining binding at 1 µM (KIT) of 0% and a remaining binding at 1 µM (HIPK2) of 100%. For the same molecule, the remaining binding at 1 µM (TEC) was 78%, the remaining binding at 1 µM (PIK3CA) was 90% and the remaining binding at 1 µM (SNARK) was 100%. It also gave a remaining binding at 1 µM (RIPK4) of 86%, a remaining binding at 1 µM (TAOK3) of 41% and a remaining binding at 1 µM (WEE2) of 100%. It also gave a remaining binding at 1 µM (BLK) of 49%, a remaining binding at 1 µM (PIK3CA(H1047L)) of 73% and a remaining binding at 1 µM (MEK6) of 88%. For the same molecule, the remaining binding at 1 µM [1] was 30%, the remaining binding at 1 µM (ADCK3) was 85% and the remaining binding at 1 µM (PIK3CA(I800L)) was 75%. For the same molecule, the remaining binding at 1 µM (GRK7) was 88%, the remaining binding at 1 µM (CDK3) was 100% and the remaining binding at 1 µM (CSNK1G3) was 89%. It also gave a remaining binding at 1 µM (AXL) of 86%, a remaining binding at 1 µM (WNK2) of 98% and a remaining binding at 1 µM (GCN2(Kin.Dom.2, S808G)) of 28%. The remaining binding at 1 µM (p38-gamma) was 58%, the remaining binding at 1 µM (RIOK3) was 22% and the remaining binding at 1 µM [2] was 0%. For the same molecule, the remaining binding at 1 µM [3] was 70%, the remaining binding at 1 µM (CDK4) was 94% and the remaining binding at 1 µM (ABL1-nonphosphorylated) was 0.3%. For the same molecule, the remaining binding at 1 µM (CDK4-cyclinD3) was 72%, the remaining binding at 1 µM (LATS2) was 100% and the remaining binding at 1 µM (VPS34) was 87%. The remaining binding at 1 µM (CLK1) was 87%, the remaining binding at 1 µM (ABL1-phosphorylated) was 23% and the remaining binding at 1 µM (MAPKAPK5) was 99%. For the same molecule, the remaining binding at 1 µM (ACVR2A) was 100%, the remaining binding at 1 µM (p38-beta) was 100% and the remaining binding at 1 µM (ERK1) was 100%. For the same molecule, the remaining binding at 1 µM (BMPR1A) was 100%, the remaining binding at 1 µM (FLT4) was 0.5% and the remaining binding at 1 µM (SNRK) was 100%. The remaining binding at 1 µM (IGF1R) was 59%.
In the case of `CCN1CCN(Cc2ccc(Nc3nc4ccc(Oc5ccnc(NC(C)=O)c5)c(C)c4n3C)cc2C(F)(F)F)CC1` [Compound I-6, N-(4-(2-(4-((4-ethylpiperazin-1-yl)methyl)-3-(trifluoromethyl)phenylamino)-1,7-dimethyl-1H-benzo[d]imidazol-6-yloxy)pyridin-2-yl)acetamide], the remaining binding at 1 µM (MYLK) is reported as 91%, the remaining binding at 1 µM (KIT) is reported as 0.55% and the remaining binding at 1 µM (HIPK2) is reported as 86%. For the same molecule, the remaining binding at 1 µM (TEC) was 100%, the remaining binding at 1 µM (PIK3CA) was 91% and the remaining binding at 1 µM (SNARK) was 100%. It also gave a remaining binding at 1 µM (RIPK4) of 97%, a remaining binding at 1 µM (TAOK3) of 13% and a remaining binding at 1 µM (WEE2) of 100%. For the same molecule, the remaining binding at 1 µM (BLK) was 17%, the remaining binding at 1 µM (PIK3CA(H1047L)) was 85% and the remaining binding at 1 µM (MEK6) was 71%. It also gave a remaining binding at 1 µM [1] of 33%, a remaining binding at 1 µM (ADCK3) of 100% and a remaining binding at 1 µM (PIK3CA(I800L)) of 98%. It also gave a remaining binding at 1 µM (GRK7) of 95%, a remaining binding at 1 µM (CDK3) of 74% and a remaining binding at 1 µM (CSNK1G3) of 94%. The remaining binding at 1 µM (AXL) was 61%, the remaining binding at 1 µM (WNK2) was 66% and the remaining binding at 1 µM (GCN2(Kin.Dom.2, S808G)) was 44%. For the same molecule, the remaining binding at 1 µM (p38-gamma) was 62%, the remaining binding at 1 µM (RIOK3) was 100% and the remaining binding at 1 µM [2] was 1.9%. It also gave a remaining binding at 1 µM [3] of 100%, a remaining binding at 1 µM (CDK4) of 92% and a remaining binding at 1 µM (ABL1-nonphosphorylated) of 0.05%. It also gave a remaining binding at 1 µM (CDK4-cyclinD3) of 95%, a remaining binding at 1 µM (LATS2) of 100% and a remaining binding at 1 µM (VPS34) of 100%. The remaining binding at 1 µM (CLK1) was 94%, the remaining binding at 1 µM (ABL1-phosphorylated) was 11% and the remaining binding at 1 µM (MAPKAPK5) was 83%. The remaining binding at 1 µM (ACVR2A) was 100%, the remaining binding at 1 µM (p38-beta) was 94% and the remaining binding at 1 µM (ERK1) was 100%. It also gave a remaining binding at 1 µM (BMPR1A) of 98%, a remaining binding at 1 µM (FLT4) of 0.7% and a remaining binding at 1 µM (SNRK) of 81%. For the same molecule, the remaining binding at 1 µM (IGF1R) was 34%.
